Results: PubChem BioAssay AID216 (DTP/NCI, 2004)
“And” between values parts separate entries of the source, which are not always exact repeats. Identical values can stand only once. Toxic doses and inconclusive results are not listed.

System: BDF1 mice, P288 leukemia ip, survival T/C
Test: NCI In Vivo Anticancer Drug Screen. Data for tumor model P288 Lymphocytic Leukemia (intraperitoneal) in B6D2F1 (BDF1) mice
Details: endpoint: survival time, mean or median, higher = longer survival
Method: The antitumor activity of compounds was measured in mice bearing transplantable tumors. Survival or tumor size were measured and the results are expressed as the measurement made in the treated group (T) divided by the measurement made in the vehicle treated control group (C). The tumor model used in this assay is P288 Lymphocytic Leukemia (intraperitoneal) in B6D2F1 (BDF1) mice

[1] = dose: 2.0 mg/kg/injection, schedule: Q01DX010 (ip), vehicle: saline
[2] = dose: 4.0 mg/kg/injection, schedule: Q01DX010 (ip), vehicle: saline
[3] = dose: 8.0 mg/kg/injection, schedule: Q01DX010 (ip), vehicle: saline
[4] = dose: 16.0 mg/kg/injection, schedule: Q01DX010 (ip), vehicle: saline
[5] = dose: 25.0 mg/kg/injection, schedule: Q01DX010 (ip), vehicle: saline
[6] = dose: 50.0 mg/kg/injection, schedule: Q01DX010 (ip), vehicle: saline

Question: Which results are given for `C=CC(CN1CC1)OC(C)=O` (centres undefined)?
Answer: T/C (dose: 0.47 mg/kg/injection, schedule: Q01DX Z (ip), vehicle: carboxymethylcellulose (CMC)): 109 % of control; T/C (dose: 0.95 mg/kg/injection, schedule: Q01DX Z (ip), vehicle: carboxymethylcellulose (CMC)): 101 % of control; T/C (dose: 1.9 mg/kg/injection, schedule: Q01DX Z (ip), vehicle: carboxymethylcellulose (CMC)): 115 % of control and 90 % of control; T/C [1]: 94 % of control; T/C (dose: 3.8 mg/kg/injection, schedule: Q01DX Z (ip), vehicle: carboxymethylcellulose (CMC)): 108 % of control; T/C [2]: 94 % of control; T/C [3]: 115 % of control; T/C [4]: 115 % of control

Question: Which results are given for `Cc1cc2nc3c(=O)[nH]c(=O)nc-3n(CC(O)C(O)C(O)C(O)CO)c2cc1C` (centres undefined)?
Answer: T/C [5]: 100 % of control; T/C [6]: 118 % of control; T/C (dose: 100.0 mg/kg/injection, schedule: Q01DX010 (ip), vehicle: saline): 106 % of control and 94 % of control; T/C (dose: 200.0 mg/kg/injection, schedule: Q01DX010 (ip), vehicle: saline): 106 % of control and 94 % of control; T/C (dose: 400.0 mg/kg/injection, schedule: Q01DX010 (ip), vehicle: saline): 112 % of control

Question: `CC[n+]1c(-c2ccccc2)c2cc(N)ccc2c2ccc(N)cc21` was tested. Which T/C (dose: 2.5 mg/kg/injection, schedule: Q01DX010 (ip), vehicle: saline) did it give?
Answer: The T/C was 152 % of control.

Question: What about the T/C (dose: 5.0 mg/kg/injection, schedule: Q01DX010 (ip), vehicle: saline) of the same molecule?
Answer: Its T/C is 170 % of control and 228 % of control.

Question: And the T/C (dose: 10.0 mg/kg/injection, schedule: Q01DX010 (ip), vehicle: saline)?
Answer: Its T/C is 223 % of control and 285 % of control.

Question: What about the T/C (dose: 20.0 mg/kg/injection, schedule: Q01DX010 (ip), vehicle: saline) of the same molecule?
Answer: Its T/C is 158 % of control and 185 % of control.

Question: And the T/C (dose: 40.0 mg/kg/injection, schedule: Q01DX010 (ip), vehicle: saline)?
Answer: The T/C was 100 % of control.

Question: How did the T/C (dose: 62.5 mg/kg/injection, schedule: Q01DX010 (sc), vehicle: steriod suspending solution) turn out when `C=C1C[C@H]2[C@@H]3C=C(C)C4=CC(=O)CC[C@]4(C)[C@H]3CC[C@]2(C)[C@@]1(OC(C)=O)C(C)=O` was run?
Answer: Its T/C is 88 % of control.

Question: What about the T/C (dose: 125.0 mg/kg/injection, schedule: Q01DX010 (sc), vehicle: steriod suspending solution) of the same molecule?
Answer: Its T/C is 94 % of control.

Question: With `N[C@@H](Cc1ccc(N(CCCl)CCCl)cc1)C(=O)O` as the molecule, how does the T/C (dose: 0.62 mg/kg/injection, schedule: Q01DX Z (ip), vehicle: saline) read?
Answer: The T/C was 151 % of control.

Question: What about the T/C (dose: 1.25 mg/kg/injection, schedule: Q01DX Z (ip), vehicle: saline) of the same molecule?
Answer: Its T/C is 181 % of control and 196 % of control.

Question: What about the T/C (dose: 2.5 mg/kg/injection, schedule: Q01DX Z (ip), vehicle: saline) of the same molecule?
Answer: Its T/C is 172 % of control.

Question: And the T/C (dose: 5.0 mg/kg/injection, schedule: Q01DX Z (ip), vehicle: saline)?
Answer: The T/C was 207 % of control.

Question: What about the T/C (dose: 10.0 mg/kg/injection, schedule: Q01DX Z (ip), vehicle: saline) of the same molecule?
Answer: The T/C was 108 % of control and 113 % of control.

Question: Which T/C (dose: 0.63 mg/kg/injection, schedule: Q01DX Z (ip), vehicle: carboxymethylcellulose (CMC)) does the source give for `CC(CCC(C)OS(C)(=O)=O)OS(C)(=O)=O` (centres undefined) here?
Answer: The T/C was 100 % of control.

Question: And the T/C (dose: 1.25 mg/kg/injection, schedule: Q01DX Z (ip), vehicle: carboxymethylcellulose (CMC))?
Answer: Its T/C is 88 % of control.

Question: And the T/C [1]?
Answer: Its T/C is 90 % of control.

Question: And the T/C (dose: 2.5 mg/kg/injection, schedule: Q01DX Z (ip), vehicle: carboxymethylcellulose (CMC))?
Answer: The T/C was 105 % of control.

Question: And the T/C [2]?
Answer: The T/C was 90 % of control.

Question: And the T/C (dose: 5.0 mg/kg/injection, schedule: Q01DX Z (ip), vehicle: carboxymethylcellulose (CMC))?
Answer: Its T/C is 114 % of control.

Question: And the T/C [3]?
Answer: Its T/C is 100 % of control.

Question: And the T/C (dose: 10.0 mg/kg/injection, schedule: Q01DX Z (ip), vehicle: carboxymethylcellulose (CMC))?
Answer: Its T/C is 107 % of control.

Question: What about the T/C [4] of the same molecule?
Answer: The T/C was 104 % of control and 105 % of control and 90 % of control.

Question: And the T/C (dose: 20.0 mg/kg/injection, schedule: Q01DX Z (ip), vehicle: carboxymethylcellulose (CMC))?
Answer: Its T/C is 90 % of control.

Question: `CC[C@]1(O)C[C@H]2CN(CCc3c([nH]c4ccccc34)[C@@](C(=O)OC)(c3cc4c(cc3OC)N(C=O)[C@H]3[C@@](O)(C(=O)OC)[C@H](OC(C)=O)[C@]5(CC)C=CCN6CC[C@]43[C@@H]65)C2)C1` was tested. Which T/C (dose: 0.06 mg/kg/injection, schedule: Q01DX Z (ip), vehicle: water) did it give?
Answer: Its T/C is 102 % of control.

Question: What about the T/C (dose: 0.12 mg/kg/injection, schedule: Q01DX Z (ip), vehicle: water) of the same molecule?
Answer: The T/C was 109 % of control.

Question: And the T/C (dose: 0.25 mg/kg/injection, schedule: Q01DX Z (ip), vehicle: water)?
Answer: The T/C was 116 % of control.

Question: What about the T/C (dose: 0.5 mg/kg/injection, schedule: Q01DX Z (ip), vehicle: water) of the same molecule?
Answer: The T/C was 120 % of control and 101 % of control.

Question: `Nc1ncnc2[nH]ncc12` was tested. Which T/C (dose: 1.5 mg/kg/injection, schedule: Q01DX010 (ip), vehicle: saline) did it give?
Answer: Its T/C is 93 % of control and 100 % of control.

Question: What about the T/C (dose: 3.0 mg/kg/injection, schedule: Q01DX010 (ip), vehicle: saline) of the same molecule?
Answer: Its T/C is 107 % of control and 100 % of control.

Question: And the T/C (dose: 6.0 mg/kg/injection, schedule: Q01DX010 (ip), vehicle: saline)?
Answer: Its T/C is 100 % of control.

Question: What about the T/C (dose: 6.25 mg/kg/injection, schedule: Q01DX Z (ip), vehicle: carboxymethylcellulose (CMC)) of the same molecule?
Answer: Its T/C is 92 % of control.

Question: And the T/C (dose: 12.0 mg/kg/injection, schedule: Q01DX010 (ip), vehicle: saline)?
Answer: Its T/C is 112 % of control.

Question: And the T/C (dose: 12.5 mg/kg/injection, schedule: Q01DX Z (ip), vehicle: carboxymethylcellulose (CMC))?
Answer: The T/C was 94 % of control.

Question: What about the T/C (dose: 25.0 mg/kg/injection, schedule: Q01DX Z (ip), vehicle: carboxymethylcellulose (CMC)) of the same molecule?
Answer: Its T/C is 94 % of control.

Question: Which results are given for `O=NN(CCCl)C(=O)NCCCl`?
Answer: T/C (dose: 1.0 mg/kg/injection, schedule: Q01DX Z (ip), vehicle: saline): 121 % of control; T/C (dose: 2.0 mg/kg/injection, schedule: Q01DX Z (ip), vehicle: saline): 117 % of control; T/C (dose: 6.25 mg/kg/injection, schedule: Q01DX010 (ip), vehicle: saline): 193 % of control and 428 % of control; T/C (dose: 12.5 mg/kg/injection, schedule: Q01DX010 (ip), vehicle: saline): 150 % of control and 192 % of control; T/C (dose: 16.0 mg/kg/injection, schedule: Q01DX Z (ip), vehicle: saline): 203 % of control; T/C [5]: 106 % of control and 121 % of control; T/C (dose: 32.0 mg/kg/injection, schedule: Q01DX Z (ip), vehicle: saline): 263 % of control; T/C [6]: 87 % of control; T/C (dose: 64.0 mg/kg/injection, schedule: Q01DX Z (ip), vehicle: saline): 101 % of control

Question: How did the T/C (dose: 0.4 mg/kg/injection, schedule: Q01DX Z (ip), vehicle: carboxymethylcellulose (CMC)) turn out when `C[N+](C)(C)c1ncnc2nc[nH]c12` was run?
Answer: Its T/C is 98 % of control.

Question: What about the T/C (dose: 0.8 mg/kg/injection, schedule: Q01DX Z (ip), vehicle: carboxymethylcellulose (CMC)) of the same molecule?
Answer: Its T/C is 94 % of control.

Question: And the T/C (dose: 1.6 mg/kg/injection, schedule: Q01DX Z (ip), vehicle: carboxymethylcellulose (CMC))?
Answer: Its T/C is 98 % of control.

Question: What about the T/C (dose: 3.1 mg/kg/injection, schedule: Q01DX Z (ip), vehicle: carboxymethylcellulose (CMC)) of the same molecule?
Answer: Its T/C is 98 % of control.

Question: What about the T/C (dose: 15.0 mg/kg/injection, schedule: Q01DX010 (ip), vehicle: saline) of the same molecule?
Answer: The T/C was 88 % of control and 100 % of control.

Question: And the T/C (dose: 30.0 mg/kg/injection, schedule: Q01DX010 (ip), vehicle: saline)?
Answer: Its T/C is 100 % of control.

Question: And the T/C (dose: 60.0 mg/kg/injection, schedule: Q01DX010 (ip), vehicle: saline)?
Answer: Its T/C is 100 % of control.

Question: What about the T/C (dose: 120.0 mg/kg/injection, schedule: Q01DX010 (ip), vehicle: saline) of the same molecule?
Answer: The T/C was 100 % of control.

Question: With `N#Cc1cn(C2OC(CO)C(O)C2O)c2ncnc(N)c12` (centres undefined) as the molecule, how does the T/C (dose: 0.12 mg/kg/injection, schedule: Q01DX Z (ip), vehicle: carboxymethylcellulose (CMC)) read?
Answer: Its T/C is 114 % of control.

Question: What about the T/C (dose: 0.25 mg/kg/injection, schedule: Q01DX Z (ip), vehicle: carboxymethylcellulose (CMC)) of the same molecule?
Answer: The T/C was 106 % of control.

Question: What about the T/C (dose: 0.5 mg/kg/injection, schedule: Q01DX Z (ip), vehicle: carboxymethylcellulose (CMC)) of the same molecule?
Answer: The T/C was 93 % of control.

Question: And the T/C (dose: 1.0 mg/kg/injection, schedule: Q01DX Z (ip), vehicle: carboxymethylcellulose (CMC))?
Answer: The T/C was 106 % of control.

Question: And the T/C (dose: 8.0 micrograms/kg/injection, schedule: Q01DX Z (ip), vehicle: carboxymethylcellulose (CMC))?
Answer: The T/C was 103 % of control.

Question: What about the T/C (dose: 16.0 micrograms/kg/injection, schedule: Q01DX Z (ip), vehicle: carboxymethylcellulose (CMC)) of the same molecule?
Answer: The T/C was 103 % of control.

Question: What about the T/C (dose: 31.0 micrograms/kg/injection, schedule: Q01DX Z (ip), vehicle: carboxymethylcellulose (CMC)) of the same molecule?
Answer: The T/C was 97 % of control.

Question: What about the T/C (dose: 31.3 micrograms/kg/injection, schedule: Q01DX010 (ip), vehicle: saline) of the same molecule?
Answer: The T/C was 155 % of control.

Question: What about the T/C (dose: 62.5 micrograms/kg/injection, schedule: Q01DX010 (ip), vehicle: saline) of the same molecule?
Answer: The T/C was 105 % of control.

Question: And the T/C (dose: 125.0 micrograms/kg/injection, schedule: Q01DX010 (ip), vehicle: saline)?
Answer: The T/C was 105 % of control.

Question: And the T/C (dose: 250.0 micrograms/kg/injection, schedule: Q01DX010 (ip), vehicle: saline)?
Answer: Its T/C is 105 % of control.
